Read-outs that look alike come from different tables or passages of the source.
Key:
Format in all cases: cell-based
[1] = tested on: HCC827-SVD cells (human EGFR exon 20 insertion mutant D770_N771insSVD); assay: Cell growth inhibition (CellTiter-Glo), HCC827-SVD; conditions: 72 h, 3 days
Outline: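 Growth read by CellTiter-Glo luminescence after 3-day compound exposure at 37 °C. Engineered clonal HCC827 line (native EGFR deleted by CRISPR, mutant EGFR re-expressed) plated at 5000 cells/well in 10% FBS RPMI the night before dosing.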

A431 cells = assay: Cell growth inhibition (CellTiter-Glo), A431; conditions: Homo sapiens, A-431, 72 h, 3 days
Procedure: 2. Cell Growth Inhibition for HCC827, HCC827-SVD, HCC827-ASV, HCC827-YVMA, and A431.
HCC827(ATCC), HCC827-SVD, HCC827-ASV, and HCC827-YVMA cells were seeded in 96-well plates at 5000 cells/well in 90 μL of RPMI growth medium containing 10% FBS and 1% Penicillin Streptomycin. A431 (ATCC) cells were seeded in 96-well plates at 5000 cells/well in 90 μL of DMEM growth medium containing 10% FBS and 1% Penicillin Streptomycin. Cells were incubated at 37° C. overnight and then administered with 10 μL 10× test compounds prepared in the growth medium at various concentrations. After administration of the compounds, cells were incubated at 37° C. for 3 days. Before the CellTiter-Glo assay, the plates were equilibrated at room temperature for approximately 30 minutes. 100 ul of CellTiter-Glo reagent (Promega) was added to each well. The plates were then incubated at room temperature for 10 minutes and luminescence was recorded by the EnSight® multimode plate reader (PerkinElmer). Table 7 listed selected compounds in cellular growth assay.

HCC827 cells = assay: Cell growth inhibition (CellTiter-Glo), HCC827; conditions: Homo sapiens, 72 h, 3 days
Outline: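 Readout was CellTiter-Glo luminescence after 3-day compound treatment at 37° C. Cells were seeded at 5000/well the previous night: HCC827 in RPMI/10% FBS, A431 in DMEM/10% FBS.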

[2] = tested on: HCC827-YVMA cells (human ERBB2 exon20 insertion mutant A775_G776ins YVMA); assay: Cell growth inhibition (CellTiter-Glo), HCC827-YVMA; conditions: 72 h, read-out: Cell growth inhibition, GI50 (nM) HCC827-YVMA
Outline: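 Growth in RPMI with 10% FBS was measured by CellTiter-Glo luminescence after 3 days at 37 °C with test compounds across a concentration range. The single-clone HCC827 lines carry a lentiviral YVMA (ERBB2) or ASV (EGFR) exon 20 insertion, with endogenous EGFR removed via sgRNA/Cas9.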

[3] = HCC827-YVMA cells, 3 days, CellTiter-Glo

Compound | GI50 [1] | GI50 (A431 cells) | GI50 (HCC827 cells) | GI50 [2, 3] | GI50 [2]
C=CC(=O)N1CC(Nc2n[nH]c3ncnc(Nc4ccc(OCc5ccccn5)c(Cl)c4)c23)C1 [Compound 168, 1-(3-((4-((3-chloro-4-(pyridin-2-ylmethoxy)phenyl)amino)-1H-pyrazolo[3,4-d]pyrimidin-3-yl)amino)azetidin-1-yl)prop-2-en-1-one] | > 1000 nM | > 1000 nM | 200 to 1000 nM | > 1000 nM | –
C=CC(=O)N1CCC(Nc2n[nH]c3ncnc(Nc4ccc(OCc5ccccn5)c(Cl)c4)c23)CC1 [Compound 169, 1-(4-((4-((3-chloro-4-(pyridin-2-ylmethoxy)phenyl)amino)-1H-pyrazolo[3,4-d]pyrimidin-3-yl)amino)piperidin-1-yl)prop-2-en-1-one] | > 1000 nM | > 1000 nM | > 1000 nM | > 1000 nM | –
C=CC(=O)N1CCC(c2n[nH]c3ncnc(Nc4ccc(Oc5ccnc(-c6csc(C)n6)c5)cc4F)c23)CC1 [Compound 171, 1-(4-(4-((2-fluoro-4-((2-(2-methylthiazol-4-yl)pyridin-4-yl)oxy)phenyl)amino)-1H-pyrazolo[3,4-d]pyrimidin-3-yl)piperidin-1-yl)prop-2-en-1-one] | 50 to 200 nM | > 1000 nM | 200 to 1000 nM | – | < 50 nM
C=CC(=O)N1CCC(c2n[nH]c3ncnc(Nc4ccc(Oc5ccnc(NC6CCOCC6)c5)cc4F)c23)CC1 [Compound 174, 1-(4-(4-((2-fluoro-4-((2-((tetrahydro-2H-pyran-4-yl)amino)pyridin-4-yl)oxy)phenyl)amino)-1H-pyrazolo[3,4-d]pyrimidin-3-yl)piperidin-1-yl)prop-2-en-1-one] | 200 to 1000 nM | > 1000 nM | > 1000 nM | 200 to 1000 nM | –
C=CC(=O)N1CCC(c2n[nH]c3ncnc(Nc4ccc(Oc5ccnc(N6C[C@H](OC)[C@H](OC)C6)c5)cc4F)c23)CC1 [Compound 176, 1-(4-(4-((4-((2-((3S,4R)-3,4-dimethoxypyrrolidin-1-yl)pyridin-4-yl)oxy)-2-fluorophenyl)amino)-1H-pyrazolo[3,4-d]pyrimidin-3-yl)piperidin-1-yl)prop-2-en-1-one] | 200 to 1000 nM | > 1000 nM | > 1000 nM | 200 to 1000 nM | –
C=CC(=O)N1CCC(c2n[nH]c3ncnc(Nc4ccc(Oc5ccnc(N6CC(C)(OC)C6)c5)cc4F)c23)CC1 [Compound 178, 1-(4-(4-((2-fluoro-4-((2-(3-methoxy-3-methylazetidin-1-yl)pyridin-4-yl)oxy)phenyl)amino)-1H-pyrazolo[3,4-d]pyrimidin-3-yl)piperidin-1-yl)prop-2-en-1-one] | 200 to 1000 nM | > 1000 nM | > 1000 nM | 50 to 200 nM | –
C=CC(=O)N1CCC(c2n[nH]c3ncnc(Nc4ccc(Oc5ccnc(N6CCC(C#N)C6)c5)cc4F)c23)CC1 (stereo not shown) [Compound 179, 1-(4-(4-((3-(1-acryloylpiperidin-4-yl)-1H-pyrazolo[3,4-d]pyrimidin-4-yl)amino)-3-fluorophenoxy)pyridin-2-yl)pyrrolidine-3-carbonitrile] | 200 to 1000 nM | > 1000 nM | > 1000 nM | 200 to 1000 nM | –
C=CC(=O)N1CCC(c2n[nH]c3ncnc(Nc4ccc(Oc5ccn(S(=O)(=O)C(C)C)n5)cc4F)c23)CC1 [Compound 183, 1-(4-(4-((2-fluoro-4-((1-(isopropylsulfonyl)-1H-pyrazol-3-yl)oxy)phenyl)amino)-1H-pyrazolo[3,4-d]pyrimidin-3-yl)piperidin-1-yl)prop-2-en-1-one] | 200 to 1000 nM | > 1000 nM | 200 to 1000 nM | 200 to 1000 nM | –
C=CC(=O)N1CCC(c2n[nH]c3ncnc(Nc4ccc(Oc5ccnc(C(=O)NC)c5)cc4F)c23)CC1 [Compound 184, 4-(4-((3-(1-acryloylpiperidin-4-yl)-1H-pyrazolo[3,4-d]pyrimidin-4-yl)amino)-3-fluorophenoxy)-N-methylpicolinamide] | > 1000 nM | > 1000 nM | > 1000 nM | 200 to 1000 nM | –
C=CC(=O)N1CCC(c2n[nH]c3ncnc(Nc4ccc(O[C@H]5CCCN(S(=O)(=O)c6cccs6)C5)cc4F)c23)CC1 [Compound 186, (S)-1-(4-(4-((2-fluoro-4-((1-(thiophen-2-ylsulfonyl)piperidin-3-yl)oxy)phenyl)amino)-1H-pyrazolo[3,4-d]pyrimidin-3-yl)piperidin-1-yl)prop-2-en-1-one] | 200 to 1000 nM | > 1000 nM | 200 to 1000 nM | 50 to 200 nM | –
C=CC(=O)N1CCC(c2n[nH]c3ncnc(Nc4ccc(O[C@H]5CCCN(S(=O)(=O)c6ccc(OC)nc6)C5)cc4F)c23)CC1 [Compound 187, (S)-1-(4-(4-((2-fluoro-4-((1-((6-methoxypyridin-3-yl)sulfonyl)piperidin-3-yl)oxy)phenyl)amino)-1H-pyrazolo[3,4-d]pyrimidin-3-yl)piperidin-1-yl)prop-2-en-1-one] | 200 to 1000 nM | > 1000 nM | 200 to 1000 nM | 200 to 1000 nM | –
C=CC(=O)N1CCC(c2n[nH]c3ncnc(Nc4ccc(Oc5nc(-c6cnc(C)c(F)c6)cs5)cc4F)c23)CC1 [Compound 190, 1-[4-[4-[2-fluoro-4-[4-(5-fluoro-6-methyl-3-pyridyl)thiazol-2-yl]oxy-anilino]-1H-pyrazolo[3,4-d]pyrimidin-3-yl]-1-piperidyl]prop-2-en-1-one] | 50 to 200 nM | > 1000 nM | 200 to 1000 nM | 50 to 200 nM | –
C=CC(=O)N1CCC(c2n[nH]c3ncnc(Nc4ccc(Oc5nc(-c6ccnn6C)cs5)cc4F)c23)CC1 [Compound 191, 1-(4-(4-((2-fluoro-4-((4-(1-methyl-1H-pyrazol-5-yl)thiazol-2-yl)oxy)phenyl)amino)-1H-pyrazolo[3,4-d]pyrimidin-3-yl)piperidin-1-yl)prop-2-en-1-one] | 200 to 1000 nM | > 1000 nM | 200 to 1000 nM | 200 to 1000 nM | –

More lines, main results first:

GI50 [1] | GI50 (A431 cells) | GI50 (HCC827 cells) | GI50 [2, 3] | Compound | GI50 [2]
50 to 200 nM | > 1000 nM | 200 to 1000 nM | 50 to 200 nM | C=CC(=O)N1CCC(c2n[nH]c3ncnc(Nc4ccc(O[C@H]5CCCN(S(=O)(=O)c6ccccc6)C5)cc4F)c23)CC1 [Compound 165, (S)-1-(4-(4-((2-fluoro-4-((1-(phenylsulfonyl)piperidin-3-yl)oxy)phenyl)amino)-1H-pyrazolo[3,4-d]pyrimidin-3-yl)piperidin-1-yl)prop-2-en-1-one] | –
50 to 200 nM | > 1000 nM | 200 to 1000 nM | 50 to 200 nM | C=CC(=O)N1CCC(c2n[nH]c3ncnc(Nc4ccc(Oc5ccnc(N6CCO[C@H](C)C6)c5)cc4F)c23)CC1 [Compound 172, (R)-1-(4-(4-((2-fluoro-4-((2-(2-methylmorpholino)pyridin-4-yl)oxy)phenyl)amino)-1H-pyrazolo[3,4-d]pyrimidin-3-yl)piperidin-1-yl)prop-2-en-1-one] | –
50 to 200 nM | > 1000 nM | > 1000 nM | 50 to 200 nM | C=CC(=O)N1CCC(c2n[nH]c3ncnc(Nc4ccc(Oc5ccnc(N6CC7(CCOCC7)C6)c5)cc4F)c23)CC1 [Compound 181, 1-(4-(4-((4-((2-(7-oxa-2-azaspiro[3.5]nonan-2-yl)pyridin-4-yl)oxy)-2-fluorophenyl)amino)-1H-pyrazolo[3,4-d]pyrimidin-3-yl)piperidin-1-yl)prop-2-en-1-one] | –
50 to 200 nM | > 1000 nM | > 1000 nM | 50 to 200 nM | C=CC(=O)N1CCC(c2n[nH]c3ncnc(Nc4ccc(Oc5ccnc(NC(=O)C(C)C)c5)cc4F)c23)CC1 [Compound 182, N-(4-(4-((3-(1-acryloylpiperidin-4-yl)-1H-pyrazolo[3,4-d]pyrimidin-4-yl)amino)-3-fluorophenoxy)pyridin-2-yl)isobutyramide] | –
50 to 200 nM | > 1000 nM | 200 to 1000 nM | 50 to 200 nM | C=CC(=O)N1CCC(c2n[nH]c3ncnc(Nc4ccc(Oc5nc(-c6ccc(C(F)(F)F)nc6)cs5)cc4F)c23)CC1 [Compound 188, 1-(4-(4-((2-fluoro-4-((4-(6-(trifluoromethyl)pyridin-3-yl)thiazol-2-yl)oxy)phenyl)amino)-1H-pyrazolo[3,4-d]pyrimidin-3-yl)piperidin-1-yl)prop-2-en-1-one] | –
< 50 nM | > 1000 nM | < 50 nM | 50 to 200 nM | C=CC(=O)N1CCC(c2n[nH]c3ncnc(Nc4ccc(OCc5nnsc5Cl)cc4F)c23)CC1 [Compound 195, 1-(4-(4-((4-((5-chloro-1,2,3-thiadiazol-4-yl)methoxy)-2-fluorophenyl)amino)-1H-pyrazolo[3,4-d]pyrimidin-3-yl)piperidin-1-yl)prop-2-en-1-one] | –

From patent US20240059698A1 (Accutar Biotechnology Inc., priority 2022, published 2024)
